Experimental data taken from ChEMBL document CHEMBL1155256, “A new small molecule that directly inhibits the DNA binding of NF-kappaB” (Bioorg Med Chem, 2009).

molecular target: T1, Nuclear factor NF-kappa-B p105 subunit (Homo sapiens, UniProt P19838); assay: Inhibition of GST-fused human NF-kappaB p50 subunit DNA binding activity assessed as shortened diffusion time by fluorescence correlation spectroscopy
T1 sequence (P19838 whole entry): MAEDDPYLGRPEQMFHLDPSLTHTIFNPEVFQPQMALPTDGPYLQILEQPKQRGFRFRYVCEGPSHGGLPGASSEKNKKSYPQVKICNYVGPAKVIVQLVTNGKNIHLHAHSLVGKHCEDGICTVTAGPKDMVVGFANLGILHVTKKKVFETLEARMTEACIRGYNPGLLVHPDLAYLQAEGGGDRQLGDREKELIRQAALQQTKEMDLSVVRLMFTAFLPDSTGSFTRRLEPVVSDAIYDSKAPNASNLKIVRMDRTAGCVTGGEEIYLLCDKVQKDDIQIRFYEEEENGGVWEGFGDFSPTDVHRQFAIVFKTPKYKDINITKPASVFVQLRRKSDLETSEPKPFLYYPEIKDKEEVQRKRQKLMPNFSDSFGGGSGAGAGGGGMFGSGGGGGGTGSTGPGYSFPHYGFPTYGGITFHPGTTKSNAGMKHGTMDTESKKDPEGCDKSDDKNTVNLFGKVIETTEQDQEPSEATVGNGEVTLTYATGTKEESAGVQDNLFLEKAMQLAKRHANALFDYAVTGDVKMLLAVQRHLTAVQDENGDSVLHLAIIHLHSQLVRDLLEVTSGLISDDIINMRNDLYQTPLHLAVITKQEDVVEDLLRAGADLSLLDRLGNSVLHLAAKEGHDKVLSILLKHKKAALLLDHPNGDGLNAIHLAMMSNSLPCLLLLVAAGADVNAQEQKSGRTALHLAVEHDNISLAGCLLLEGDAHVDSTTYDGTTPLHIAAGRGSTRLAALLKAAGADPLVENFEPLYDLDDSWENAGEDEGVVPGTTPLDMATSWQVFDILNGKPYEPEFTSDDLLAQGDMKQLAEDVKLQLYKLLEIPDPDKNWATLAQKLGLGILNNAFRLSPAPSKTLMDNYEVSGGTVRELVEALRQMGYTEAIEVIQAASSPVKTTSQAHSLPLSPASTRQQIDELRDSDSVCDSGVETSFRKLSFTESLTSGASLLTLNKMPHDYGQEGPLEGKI

SMILES | IC50 [µM]
O=[N+]([O-])c1ccc(Nc2nc(Cl)nc(Cl)n2)cc1 | > 300
Cc1cccc(Nc2nc(Cl)nc(Cl)n2)c1 | 19
O=[N+]([O-])c1cccc(Nc2nc(Cl)nc(Cl)n2)c1 | 119
Clc1nc(Cl)nc(Nc2ccccc2)n1 | 28.6
CC(C)c1ccc(Nc2nc(Cl)nc(Cl)n2)cc1 | 74.4
Clc1ccc(Nc2nc(Cl)nc(Cl)n2)cc1 | 110
